Measured values taken from the NIST ThermoML archive (doi:10.1016/j.jct.2012.12.022).
“And” between values parts separate entries of the source, which are not always exact repeats. Equal values may be shown once.

Test: mn = molality of the nth substance listed, in mol/kg
Conditions: 101 kPa, Liquid; for speed of sound: Sing-around technique in a fixed-path interferometer; for mass density: Vibrating tube method

CC(=O)NCC(=O)O [N-acetylglycine] + O
Conditions | mass density, 288.15 K | mass density, 293.15 K | mass density, 298.15 K | mass density, 303.15 K | speed of sound, 288.15 K | speed of sound, 293.15 K | speed of sound, 298.15 K [m/s] | speed of sound, 303.15 K
m1 = 0.085 | 1001.93 kg/m3 | 1000.99 kg/m3 | 999.799 kg/m3 | 998.366 kg/m3 | 1470.3 m/s | 1485.9 m/s | 1499.7 | 1511.7 m/s
m1 = 0.18 | 1005.02 kg/m3 and 1004.89 kg/m3 | 1004.02 kg/m3 and 1003.9 kg/m3 | 1002.78 kg/m3 and 1002.66 kg/m3 | 1001.3 kg/m3 and 1001.18 kg/m3 | 1475.4 m/s and 1470.6 m/s | 1490.5 m/s and 1490.7 m/s | 1504 | 1515.6 m/s and 1515.5 m/s

O=C([O-])CC(O)(CC(=O)[O-])C(=O)[O-].[K+].[K+].[K+] [potassium citrate] + O
Conditions | mass density, 288.15 K [kg/m3] | mass density, 293.15 K [kg/m3] | mass density, 298.15 K [kg/m3] | mass density, 303.15 K [kg/m3] | speed of sound, 288.15 K [m/s] | speed of sound, 293.15 K [m/s] | speed of sound, 298.15 K [m/s] | speed of sound, 303.15 K [m/s]
m1 = 0.00361 | 999.9 | 998.989 | 997.839 | 996.386 | 1467.4 | 1483.1 | 1497.3 | 1509.7
m1 = 0.05427 | 1010.36 | 1009.25 | 1007.98 | 1006.52 | 1478.4 | 1493.8 | 1507.6 | 1519.7
m1 = 0.09681 | 1018.59 | 1017.45 | 1016.12 | 1014.61 | 1487.2 | 1502.1 | 1515.8 | 1527.7
m1 = 0.2001 | 1038.27 | 1037.36 | 1035.59 | 1034.01 | 1507 | 1521.7 | 1534.6 | 1545.9
m1 = 0.2914 | 1055.11 | 1053.58 | 1051.92 | 1050.18 | 1524.1 | 1537.8 | 1550.6 | 1561.2
m1 = 0.3859 | 1071.84 | 1070.62 | 1069.02 | 1066.43 | 1541.9 | 1555.4 | 1567.7 | 1577.7
m1 = 0.4948 | 1090.12 | 1088.43 | 1086.46 | 1084.57 | 1561.8 | 1572.8 | 1584.8 | 1595.2
m1 = 0.5799 | 1104.11 | 1102.38 | 1100.2 | 1098.17 | 1576.6 | 1588 | 1598.8 | 1609.1
m1 = 0.6983 | 1122.79 | 1120.89 | 1118.45 | 1116.27 | 1597.6 | 1608.2 | 1618.3 | 1627.5
m1 = 0.7576 | 1131.78 | 1129.85 | 1127.36 | 1125.04 | 1607.6 | 1618.9 | 1627.7 | 1637.2
m1 = 0.8939 | 1151.83 | 1149.58 | 1146.96 | 1144.2 | 1630.8 | 1641.3 | 1649.4 | 1657.5
